Source: patent publication US9492499B2, “Peptides having anti-inflammatory properties” (Riptide Bioscience, Inc., priority 2014, dated 2016)
Entries after “also recorded” stand apart in the source; their conditions may differ. No end group written: not given here.

Tests used:
[1] = Tumor growth, MCF-7 non-metastatic breast cancer model in athymic nude mice; format: in vivo, mouse
Experimental: The polypeptides of the invention were also tested for their effect on tumor growth in a mouse model of non-metastatic breast cancer. MCF-7 human non-metastatic breast cancer cells were cultured at 37° C., 5% CO2 in normal growth media. Cells were harvested at 80% to 90% confluence. Immune compromised athymic nude mice (J:NU) were divided into 2 groups (9 animals per group). All mice were injected with ˜4.5×10^6 MCF-7 cells which had been stained with VIVO Tracker 680 and suspended in 200 μl of PBS/Matrigel mixture. Cells were injected subcutaneously on the dorsal surface of treated animals using a 22 gauge needle fitted with a 500 μl syringe.
Animals were designated vehicle and peptide treated. The peptide treated animals were treated with the RP-397 polypeptide (SEQ ID NO: 194). Freshly prepared RP-397 peptide was dissolved in sterile saline at a concentration of 100 μM and was used to treat the animals in the peptide group. Vehicle treated animals were injected with saline buffer alone. All treatments were injected into the tumor mass two times weekly for 5 weeks using a 27½ gauge needle fitted with a 1 ml syringe. Animal weights and tumor volumes were measured 3 times weekly and the fluorescence labeling was followed by VIVO Tracker 680 and IVIS Imaging.

NF-kB = NF-kB activity in 3T3-L1 preadipocyte Nfkb-RE/GFP reporter cells; format: cell-based; conditions: 0.01 μM peptide, lipopolysaccharide 20 ng/ml, GFP fluorescence
Experimental: NF-kB activity was monitored using the a 3T3-L1 preadipocyte cell line stably transformed with a Nfkb-RE/GFP construct, as described in Shen et al. (2013), “Adipocyte reporter assays: Application for identification of anti-inflammatory and antioxidant properties of mangosteen xanthones,” Mol. Nutr. Food Res. 00:1-9, the entire contents of which are incorporated herein by reference. NF-kB expressing adipocyte reporter cells were plated in DMEM in wells of a 24-well plate, at a seeding density of 5×10^4. On the second and third days post-plating, test peptides were individually added to the wells to a final concentration of 0.01 μM. The test peptides included RP-398 (SEQ ID NO: 155), and RP-185 (SEQ ID NO: 123). On day 4 post-plating, lipopolysaccharide was added to the medium to a final concentration of 20 ng/ml. Finally, on day 5 post-plating, the cells were harvested and a fluorescence assay performed to detect GFP expression levels.

PD-L1 = PD-L1 staining of tumors in transgenic p53/KRAS mice; format: in vivo, mouse; conditions: 10 mg/kg daily subcu for one week, vs vehicle
Experimental: (§1) In one experiment, tumors in transgenic p53/KRAS mice were allowed to grow to approximately […] in volume, and the animals were then treated daily subcu for one week with either vehicle only, or 10 mg/kg RP-182, following which the animals were sacrificed and the tumors resected, formalin-fixed, and stained with antibodies to PD-1 (FIG. 19), PD-L1 and PD-L2 (FIG. 20).

M1-polarized macrophages = assay: Viable cell count of M1-polarized bone marrow macrophages; format: cell-based, mouse; conditions: 100 nM, 72 hours
Experimental: (§2) Primary bone marrow cells were collected from male C57BL/6J (The Jackson Laboratory, Bar Harbor, Me.). Mouse bone marrow macrophages were differentiated in vitro from the primary bone marrow cells by culturing in Dulbecco's minimal essential medium (DMEM) with 10% FBS and 30 ng/ml murine M-CSF (colony stimulating factor) for 6 days. At day 7, macrophages were plated into 12-well plates and cultured in DMEM (10% FBS) with (i) IL-4 peptide (20 ng/mL), (ii) INF-γ (10 ng/mL), or (iii) neither IL-4 nor INF-γ for 24 hours. After 24 hours, the media was replaced with pure DMEM and the cells were cultured for an additional 48 hours. The resulting macrophages were (i) M2-polarized, (ii) M1-polarized, or (iii) undifferentiated, respectively.
(§3) A macrophage sample containing approximately 70,000 […] macrophages per ml was incubated for 72 hours with 100 nM RP-182 (SEQ ID NO: 121). […] Thus, the RP-182 had little effect on the viability of M1 macrophages.

PD-1 = PD-1 staining of tumors in transgenic p53/KRAS mice; format: in vivo, mouse; conditions: 10 mg/kg daily subcu for one week, vs vehicle
Experimental: as §1

[2] = system: undifferentiated macrophages; assay: Viable cell count of undifferentiated bone marrow macrophages; format: cell-based, mouse; conditions: 100 nM, 72 hours; sample approximately 70,000 per ml
Experimental: as §2, §3

PD-L2 = PD-L2 staining of tumors in transgenic p53/KRAS mice; format: in vivo, mouse; conditions: 10 mg/kg daily subcu for one week, vs vehicle
Experimental: as §1

M2-polarized macrophages = assay: Viable cell count of M2-polarized bone marrow macrophages; format: cell-based, mouse; conditions: 100 nM, 72 hours
Experimental: as §2, §3

[3] = system: human triple-negative breast cancer cells (MDA-MB-231); assay: Tumor volume, MDA-MB-231 triple-negative breast cancer in nude mice, combination with Gemcitabine; format: in vivo, mouse; conditions: Gemcitabine+RP-182 cohort, from day 32
Experimental: To test this theory, cohorts of immunocompromised (“nude”) mice were injected with ˜5×10^6 human triple-negative breast cancer cells (MDA-MB-231) under the upper left teat. Following this administration, one cohort received only vehicle; two of the cohorts received the chemotherapeutic agent Gemcitabine, at a q4d dose of 40 mg/kg of body weight. One of these cohorts also received RP-182 (SEQ ID NO: 121) at a daily dose of 5 mg/kg body weight; and a fourth cohort received only RP-182 at a daily dose of 5 mg/kg body weight. Beginning on day 32 of the study, in the Gemcitabine+RP-182 cohort, concentrations of RP-182 were increased to 20 mg/kg body weight. Tumor volume was assessed at various time points following initial cell administration (FIG. 21). After 50 days, the mice were sacrificed.

## FAKKFAKKF [RP-397, FAKKFAKKF]
[1]; after treatment
  Body Weight After: 30.1 g
[1]; before treatment
  Body Weight Before: 25.1 g

## FAKKFAKKFK [RP-398]
NF-kB
  NF-kB expression reduced relative to control cells: approximately 58%

## FFKKFFKKFK [RP-185]
NF-kB
  NF-kB expression reduced relative to control cells: approximately 58%

## KFRKAFKRFF [RP-182]
PD-L1
  PD-L1 expression in tumor: significantly downregulated; also recorded: reduced
M1-polarized macrophages
  viable cell count, M1-polarized macrophages: 68,000 cells per ml
PD-1
  PD-1 expression in tumor: significantly downregulated; also recorded: reduced
[2]
  viable cell count, undifferentiated macrophages: 68,000 cells per ml
PD-L2
  PD-L2 expression in tumor: significantly downregulated; also recorded: reduced
M2-polarized macrophages
  viable cell count, M2-polarized macrophages: 20,000 cells per ml
[3]
  increase in tumor volume after RP-182 raised to 20 mg/kg: essentially halted
